# Results from BindingDB's records for doi:10.7270/Q2BZ64GK (Burnham Center For Chemical Genomics, 2009).
# Molecular target: T1, Tyrosine-protein phosphatase non-receptor type 22 (Homo sapiens, UniProt Q9Y2R2)
# T1 sequence (Q9Y2R2 whole entry): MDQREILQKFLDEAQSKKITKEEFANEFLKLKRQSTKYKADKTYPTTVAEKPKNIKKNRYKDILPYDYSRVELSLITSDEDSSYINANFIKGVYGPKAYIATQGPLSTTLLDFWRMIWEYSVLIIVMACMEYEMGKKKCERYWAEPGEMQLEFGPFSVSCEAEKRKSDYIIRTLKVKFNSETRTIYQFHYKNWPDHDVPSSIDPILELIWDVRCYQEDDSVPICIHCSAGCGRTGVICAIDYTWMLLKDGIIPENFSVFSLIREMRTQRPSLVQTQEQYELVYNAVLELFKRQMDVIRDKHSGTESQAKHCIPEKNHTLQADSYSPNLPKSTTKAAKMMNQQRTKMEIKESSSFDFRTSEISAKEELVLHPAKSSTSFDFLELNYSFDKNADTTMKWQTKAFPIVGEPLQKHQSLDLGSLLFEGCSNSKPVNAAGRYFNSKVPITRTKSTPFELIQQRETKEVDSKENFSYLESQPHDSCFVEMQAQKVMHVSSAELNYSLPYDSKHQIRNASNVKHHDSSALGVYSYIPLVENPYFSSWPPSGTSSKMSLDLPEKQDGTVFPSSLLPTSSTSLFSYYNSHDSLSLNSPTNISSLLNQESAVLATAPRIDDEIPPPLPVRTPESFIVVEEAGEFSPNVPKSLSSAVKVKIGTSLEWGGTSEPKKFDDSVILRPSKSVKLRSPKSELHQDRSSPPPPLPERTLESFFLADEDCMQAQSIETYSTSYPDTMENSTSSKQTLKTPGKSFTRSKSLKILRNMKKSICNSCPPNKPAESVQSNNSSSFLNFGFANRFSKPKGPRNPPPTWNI
# Assay: PubChem AID 2135
smiles,measurement,value
"CCOc1ccc2nc(NC(=O)CSc3cc(O)c4c(C)c(C)sc4n3)sc2c1 [2-[(2,3-dimethyl-4-oxidanylidene-5H-thieno[2,3-b]pyridin-6-yl)sulfanyl]-N-(6-ethoxy-1,3-benzothiazol-2-yl)ethanamide]",IC50,> 100 µM
